Laboratory results reported in patent publication US10266550B2, “Bacterial topoisomerase I inhibitors with antibacterial activity” (The Florida International University Board of Trustees, priority 2016, dated 2019).
≈ marks a conversion by molar mass, not a printed value. Read-outs that look alike come from different tables or passages of the source.

Assays:
E. coli (MG1655) WT = test: MIC, microdilution in Mueller-Hinton Broth; conditions: wild type, read-out: Whole cell based antibacterial activity (MIC) E. coli (MG1655) WT
Human topoisomerase IIα = Human topoisomerase IIα (Homo sapiens (Human), UniProt P11388); test: Human topoisomerase IIα decatenation inhibition assay; type: biochemical; conditions: kDNA decatenation; read-out: Topoisomerase inhibitory activity (IC50) Human topo IIα (type IIA)
Chain of Human topoisomerase IIα (P11388 whole entry): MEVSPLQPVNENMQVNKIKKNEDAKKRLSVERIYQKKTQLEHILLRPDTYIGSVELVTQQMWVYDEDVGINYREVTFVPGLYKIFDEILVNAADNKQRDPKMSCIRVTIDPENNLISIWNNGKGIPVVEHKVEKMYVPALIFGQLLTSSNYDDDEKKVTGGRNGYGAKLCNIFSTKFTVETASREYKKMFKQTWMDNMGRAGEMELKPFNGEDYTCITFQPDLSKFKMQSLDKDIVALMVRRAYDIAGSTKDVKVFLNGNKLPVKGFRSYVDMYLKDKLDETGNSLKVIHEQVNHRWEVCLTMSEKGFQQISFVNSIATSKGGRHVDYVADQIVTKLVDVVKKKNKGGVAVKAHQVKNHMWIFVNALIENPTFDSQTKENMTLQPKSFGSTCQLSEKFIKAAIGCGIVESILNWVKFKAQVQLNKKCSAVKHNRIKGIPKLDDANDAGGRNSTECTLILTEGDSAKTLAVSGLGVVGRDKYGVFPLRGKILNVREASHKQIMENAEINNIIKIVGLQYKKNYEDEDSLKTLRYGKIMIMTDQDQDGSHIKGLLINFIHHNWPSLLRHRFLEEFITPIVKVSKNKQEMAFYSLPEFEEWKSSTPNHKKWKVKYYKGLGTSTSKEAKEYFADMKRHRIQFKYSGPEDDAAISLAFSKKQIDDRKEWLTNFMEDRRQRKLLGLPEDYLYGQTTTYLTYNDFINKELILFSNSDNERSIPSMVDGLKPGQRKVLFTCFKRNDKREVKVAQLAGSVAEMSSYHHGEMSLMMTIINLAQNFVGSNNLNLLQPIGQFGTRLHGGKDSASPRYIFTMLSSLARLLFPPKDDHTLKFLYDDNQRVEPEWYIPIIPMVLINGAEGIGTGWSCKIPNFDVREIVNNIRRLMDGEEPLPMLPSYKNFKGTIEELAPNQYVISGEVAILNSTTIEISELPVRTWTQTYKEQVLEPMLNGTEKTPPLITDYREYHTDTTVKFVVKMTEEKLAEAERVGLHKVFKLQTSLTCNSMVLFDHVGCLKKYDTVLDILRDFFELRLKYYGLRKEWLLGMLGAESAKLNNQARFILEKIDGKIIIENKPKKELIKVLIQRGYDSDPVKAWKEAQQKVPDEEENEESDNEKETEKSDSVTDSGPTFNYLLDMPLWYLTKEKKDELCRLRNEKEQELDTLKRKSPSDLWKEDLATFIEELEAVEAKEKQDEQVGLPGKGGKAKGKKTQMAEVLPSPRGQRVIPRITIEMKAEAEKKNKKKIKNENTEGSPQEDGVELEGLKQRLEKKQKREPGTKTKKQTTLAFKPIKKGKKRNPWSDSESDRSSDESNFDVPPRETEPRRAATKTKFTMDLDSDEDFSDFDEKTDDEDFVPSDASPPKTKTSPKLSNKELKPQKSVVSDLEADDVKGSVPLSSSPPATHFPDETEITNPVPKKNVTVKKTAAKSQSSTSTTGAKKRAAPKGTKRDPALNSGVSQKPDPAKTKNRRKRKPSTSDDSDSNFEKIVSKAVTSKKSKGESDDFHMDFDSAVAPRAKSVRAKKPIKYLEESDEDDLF
Description: Human topoisomerase I and topoisomerase IIα were purchased from TopoGen (Buena vista, CO, USA). […] The reactions were then analyzed by electrophoresis in 1% agarose gels containing […] ethidium bromide before being photographed under UV light.

E. coli DNA gyrase = E. coli DNA gyrase (Escherichia coli (strain K12), UniProt P0AES4+P0AES6); test: DNA gyrase supercoiling inhibition assay; type: biochemical; conditions: for IC50: supercoiling of relaxed DNA, read-out: Topoisomerase inhibitory activity (IC50) E. coli DNA gyrase (type IIA)
Description: (§1) Recombinant E. coli topoisomerase I and gyrase expressed in E. coli were purified as described previously.
The samples were incubated at 37° C. for 30 minutes before being terminated by the addition of a buffer containing 5% SDS, 0.25% bromophenol blue, and 25% glycerol. The reactions were then analyzed by agarose gel electrophoresis.

[1] = test system: E. coli Imp4213 (BAS3023); test: MIC, microdilution in Mueller-Hinton Broth; type: cell-based; conditions: for MIC: Escherichia coli, read-out: Whole cell based antibacterial activity (MIC) E. coli Imp4213 (BAS3023), membrane permeable imp mutant; for Whole cell based antibacterial activity (MIC) E. coli Imp4213 (BAS3023): membrane permeable imp mutant
bacterial strains = test: Whole cell antibacterial activity after storage; type: cell-based; conditions: after 4 weeks of storage
Human topoisomerase I = Human topoisomerase I (Homo sapiens (Human), UniProt P11387); test: Human topoisomerase I relaxation inhibition assay; type: biochemical; conditions: read-out: Topoisomerase inhibitory activity (IC50) Human topo I (type IB)
Chain of Human topoisomerase I (P11387 whole entry): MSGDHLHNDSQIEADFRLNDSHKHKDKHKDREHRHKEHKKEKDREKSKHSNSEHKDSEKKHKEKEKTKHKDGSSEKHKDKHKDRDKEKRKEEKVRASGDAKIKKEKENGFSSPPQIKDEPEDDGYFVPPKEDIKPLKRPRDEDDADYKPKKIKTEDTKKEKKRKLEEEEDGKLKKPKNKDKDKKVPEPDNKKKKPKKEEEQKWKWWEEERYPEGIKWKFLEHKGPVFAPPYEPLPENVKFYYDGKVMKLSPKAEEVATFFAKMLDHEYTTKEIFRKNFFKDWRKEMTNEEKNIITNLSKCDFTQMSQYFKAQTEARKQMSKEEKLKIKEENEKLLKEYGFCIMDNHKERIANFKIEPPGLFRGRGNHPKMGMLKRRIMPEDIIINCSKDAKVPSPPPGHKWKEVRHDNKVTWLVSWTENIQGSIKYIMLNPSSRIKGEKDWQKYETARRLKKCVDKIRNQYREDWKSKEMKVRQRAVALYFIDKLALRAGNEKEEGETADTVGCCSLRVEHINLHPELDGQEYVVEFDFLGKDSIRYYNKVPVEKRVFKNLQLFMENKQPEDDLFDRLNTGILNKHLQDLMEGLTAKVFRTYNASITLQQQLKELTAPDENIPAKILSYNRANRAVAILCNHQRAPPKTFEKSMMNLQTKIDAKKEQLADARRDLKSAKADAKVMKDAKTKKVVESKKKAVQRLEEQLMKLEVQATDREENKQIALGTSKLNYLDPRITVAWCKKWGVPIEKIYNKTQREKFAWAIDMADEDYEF
Description: Human topoisomerase I relaxation assays were carried out with 0.5 U of enzyme in reaction buffer supplied by the manufacturer. The enzyme was mixed with the indicated concentration of compound dissolved before 200 ng of supercoiled pBAD/Thio plasmid DNA was added in the same buffer, for a final volume of 20 μL. Following incubation at 37° C. for 30 minutes, the reactions were terminated with a buffer containing 5% SDS, 0.25% bromophenol blue, and 25% glycerol, and analyzed by agarose gel electrophoresis.
Human topoisomerase I and topoisomerase IIα were purchased from TopoGen (Buena vista, CO, USA).

E. coli topoisomerase I = E. coli topoisomerase I (Escherichia coli (strain K12), UniProt P06612); test: biochemical; type: biochemical; conditions: for PIC50 (pIC50 = −log IC50): experimental, converted from IC50
Chain of E. coli topoisomerase I (P06612 whole entry, looked up): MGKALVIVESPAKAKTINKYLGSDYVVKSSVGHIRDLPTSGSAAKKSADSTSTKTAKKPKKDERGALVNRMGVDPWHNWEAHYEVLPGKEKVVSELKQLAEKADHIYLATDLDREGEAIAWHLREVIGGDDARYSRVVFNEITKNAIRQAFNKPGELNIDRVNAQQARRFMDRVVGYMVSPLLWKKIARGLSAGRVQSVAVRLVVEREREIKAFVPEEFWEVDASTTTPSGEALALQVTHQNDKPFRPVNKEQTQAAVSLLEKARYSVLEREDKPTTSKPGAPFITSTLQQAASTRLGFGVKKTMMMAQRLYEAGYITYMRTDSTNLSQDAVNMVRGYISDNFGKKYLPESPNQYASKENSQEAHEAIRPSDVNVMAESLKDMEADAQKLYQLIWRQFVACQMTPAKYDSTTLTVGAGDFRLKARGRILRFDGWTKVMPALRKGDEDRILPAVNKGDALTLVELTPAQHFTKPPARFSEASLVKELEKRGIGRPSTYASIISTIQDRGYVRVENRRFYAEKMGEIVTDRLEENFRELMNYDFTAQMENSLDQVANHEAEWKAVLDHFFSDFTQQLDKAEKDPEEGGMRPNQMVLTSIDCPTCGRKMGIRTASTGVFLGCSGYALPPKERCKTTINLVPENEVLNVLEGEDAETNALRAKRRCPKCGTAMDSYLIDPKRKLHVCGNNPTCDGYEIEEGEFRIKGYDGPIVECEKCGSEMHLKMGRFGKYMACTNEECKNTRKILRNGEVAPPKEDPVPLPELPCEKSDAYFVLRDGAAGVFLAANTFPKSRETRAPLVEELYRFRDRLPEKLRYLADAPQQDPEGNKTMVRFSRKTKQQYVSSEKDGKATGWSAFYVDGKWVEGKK
Description: as §1
E. coli Topoisomerase I Relaxation Activity Inhibition Assay
The relaxation activity of E. coli topoisomerase I was assayed in a buffer containing 10 mM Tris-HCl, pH 8.0, 50 mM NaCl, 0.1 mg/mL gelatin, and 0.5 mM MgCl2. Half microliter from the appropriate stock solutions of compounds dissolved in the solvent (DMSO) or the solvent alone (control) was mixed with 9.5 μL of the reaction buffer containing 10 ng of enzyme before the addition of 10 μL of reaction buffer containing 200 ng of supercoiled pBAD/Thio plasmid DNA purified by cesium chloride gradient as substrate. Following incubation at 37° C. for 30 min, the reactions were terminated by the addition of 4 μL of a stop buffer (50% glycerol, 50 mM EDTA, and 0.5% (v/v) bromophenol blue), and analyzed by agarose gel electrophoresis. The gels were stained in ethidium bromide and photographed under UV light.

[2] = 1H NMR experiments
M. tuberculosis (H37Rv) = test: MIC, microplate Alamar blue assay (MABA); type: cell-based
Vero cells = test: Vero cell cytotoxicity assay; type: cell-based; conditions: for IC50: cytotoxicity
Description: (§2) MICs of compounds against M. tuberculosis were determined by a modified microplate Alamar blue assay (MABA). Vero cell cytotoxicity assay was performed as previously described.

[3] = Vero cell cytotoxicity assay; type: cell-based
Description: as §2

[4] = test system: MRSA (staphylococcus aureus BAA44); test: MIC against MRSA; type: cell-based
[5] = biological target: Mycobacterium tuberculosis topoisomerase I (Mycobacterium tuberculosis (strain ATCC 25618 / H37Rv), UniProt P9WG49); test: Mycobacterium tuberculosis topoisomerase I inhibition; type: biochemical; conditions: Table 2; read-out: IC50 against Mycobacterium tuberculosis topoisomerase I
[6] = test system: B. subtilis (ATCC 6633) WT; test: MIC, microdilution in Mueller-Hinton Broth; conditions: wild type; read-out: Whole cell based antibacterial activity (MIC) B. subtilis (ATCC 6633) WT
[7] = test system: mycobacterium smegmatis in biofilm; test: Biofilm viability by resazurin assay; type: cell-based
Description: Viability of the mycobacteria mycobacterium smegmatis in biofilm was measured by the resazurin assay.
The resazurin assay is a quick method using the resazurin dye as a bacterial respiration indicator to assay the antibacterial activity of various compounds used against bacterial biofilm growth. Such assay is well-known in the art. […] The biofilm was quantified indirectly by measuring the fluorescent, water-soluble resorufin product produced when resazurin is reduced by reactions associated with respiration.

[8] = test system: several cancer cell lines; conditions: literature [32]; read-out: IC50 against several cancer cell lines; cited from earlier work
[9] = Mycobacterium tuberculosis, H37RV, MABA, read-out: Whole cell based antibacterial activity (MIC) M. tuberculosis (H37Rv)
[10] = MABA, read-out: Whole cell based antibacterial activity (MIC) M. tuberculosis (H37Rv)
[11] = Table 3, E. coli topoisomerase I, single values set for ranges and bounds, read-out: IC50 (μM) used for CoMFA
[12] = relaxation of supercoiled plasmid DNA, read-out: Topoisomerase inhibitory activity (IC50) E. coli topo I (type IA)
[13] = Topoisomerase inhibitory activity (IC50) E. coli topo I (type IA), relaxation of supercoiled plasmid DNA

SMILES | MIC (E. coli (MG1655) WT; Escherichia coli, MG1655) | IC50 (Human topoisomerase IIα) | IC50 (E. coli DNA gyrase) | MIC [1] | IC50 (Human topoisomerase I) | PIC50 (pIC50 = −log IC50) (E. coli topoisomerase I) | MIC (M. tuberculosis (H37Rv); [9]) | IC50 (Vero cells; Chlorocebus sabaeus, Vero) | selectivity ratio ([3]; monkey) | also measured
Nc1ccc2c(c1)Oc1c(F)c(F)cc3c(=O)c(C(=O)O)cn-2c13 [Compound 1, 9-Amino-5,6-difluoro-3-oxo-3H-pyrido[3,2,1-kl]phenoxazine-2-carboxylic acid] | > 200 µM | > 500 µM | > 125 µM | 0.78 to 1.56 µM (≈ 0.258 to 0.515 µg/mL) | 31.3 µM | 5.71 | – | – | – | loss of whole cell antibacterial activity after storage (bacterial strains): 2-4 fold; precipitation in d6-DMSO solvent [2]: could be easily precipitated out
O=C(O)c1cn2c3c(c(F)c(F)cc3c1=O)Oc1cc([N+](=O)[O-])c(Cl)cc1-2 [Compound 7e, 10-Chloro-5,6-difluoro-9-nitro-3-oxo-3H-pyrido[3,2,1-kl]phenoxazine-2-carboxylic acid] | 50 µM (≈ 19.7 µg/mL) | 125 µM | 62.5 µM | 0.39 µM (≈ 0.154 µg/mL) | 31.2 µM | 4.51 | 29 µM (≈ 11.4 µg/mL) | > 127 µM | > 4.4 | selectivity toward topoisomerase I over DNA gyrase (E. coli DNA gyrase): 2 fold
CN1CCN(c2c(F)cc3c(=O)c(C(=O)O)cn4c3c2Oc2cc([N+](=O)[O-])ccc2-4)CC1 [Compound 10a, 5-Fluoro-6-(4-methylpiperazin-1-yl)-9-nitro-3-oxo-3H-pyrido[3,2,1-kl]phenoxazine-2-carboxylic acid] | 100 µM (≈ 44 µg/mL) | 250 to 500 µM | – | 1.56 µM (≈ 0.687 µg/mL) | 31.2 µM | 5.71 | 19 µM (≈ 8.37 µg/mL) | 95 µM | 5 | –
Nc1ccc2c(c1)Oc1c(N3CCOCC3)c(F)cc3c(=O)c(C(=O)O)cn-2c13 [Compound 11d, 9-Amino-5-fluoro-6-morpholino-3-oxo-3H-pyrido[3,2,1-kl]phenoxazine-2-carboxylic acid] | > 200 µM | 15.6 µM | 7.8 µM | 0.19 to 0.39 µM (≈ 0.0755 to 0.155 µg/mL) | 15.6 µM | 6.01 | 3.5 µM (≈ 1.39 µg/mL) | 24.7 µM | 7.1 | MIC [4]: 3 µM (≈ 1.19 µg/mL); IC50 [5]: 480 nM
Nc1ccc2c(c1)Oc1c(NC34CC5CC(CC(C5)C3)C4)c(F)cc3c(=O)c(C(=O)O)cn-2c13 [Compound 11f, 6-(((3s, 5s, 7s)-Adamantan-1-yl)amino)-9-amino-5-fluoro-3-oxo-3H-pyrido[3,2,1-kl]phenoxazine-2-carboxylic acid] | – | – | – | – | – | 5.23 | – | – | – | MIC (E. coli (MG1655) WT): >200 µM; MIC [6]: 12.5 µM (≈ 5.77 µg/mL); MIC (M. tuberculosis (H37Rv); [10]): 38.4 µM (≈ 17.7 µg/mL); Whole cell based antibacterial activity (MIC) E. coli Imp4213 (BAS3023) [1]: 3.12 µM; IC50 (E. coli topoisomerase I; [11]): 5.85 µM; IC50 (E. coli topoisomerase I; [12]): 3.9 to 7.8 µM; SI (Selectivity index = cytotoxic IC50 against Vero cells/MIC against M. tuberculosis) (Vero cells): 0.8; IC50 (Vero cells): 30.7 µM
Nc1ccc2c(c1)Oc1c(N3CCC(N4CCCCC4)CC3)c(F)cc3c(=O)c(C(=O)O)cn-2c13 [Compound 11g, 6-([1,4′-Bipiperidin]-1′-yl)-9-amino-5-fluoro-3-oxo-3H-pyrido[3,2,1-kl]phenoxazine-2-carboxylic acid] | > 200 µM | 1.95 to 3.9 µM | 15.6 µM | 0.39 to 0.78 µM (≈ 0.187 to 0.373 µg/mL) | 3.9 µM | 6.31 | 2.5 µM (≈ 1.2 µg/mL) | 24.4 µM | 9.8 | MIC (M. tuberculosis (H37Rv); Mycobacterium tuberculosis strain H37Rv, Table 2, read-out: MIC (TB)): 2.5 µM (≈ 1.2 µg/mL); IC50 (E. coli topoisomerase I; [13]): 0.24 to 0.97 µM; IC50 (E. coli topoisomerase I; [12]): 0.48 µM; MIC [4]: 12.5 µM (≈ 5.98 µg/mL); concentration that abolishes 90% of viability in biofilm [7]: 1.5 to 3 µM; selectivity ratio ([3]; African green monkey): 9.8; IC50 [5]: 240 nM
Nc1ccc2c(c1)Oc1c(NCCN3CCOCC3)c(F)cc3c(=O)c(C(=O)O)cn-2c13 [Compound 11h, 9-Amino-5-fluoro-6-((2-morpholinoethyl)amino)-3-oxo-3H-pyrido[3,2,1-kl]phenoxazine-2-carboxylic acid] | – | – | 15.6 to 31.2 µM | – | 7.8 to 15.6 µM | – | – | 43 µM | – | MIC (E. coli (MG1655) WT): >200 µM; MIC (M. tuberculosis (H37Rv); [10]): 21.6 µM (≈ 9.51 µg/mL); Whole cell based antibacterial activity (MIC) E. coli Imp4213 (BAS3023) [1]: 0.78 µM
N[C@H]1CCN(c2c(F)cc3c(=O)c(C(=O)O)cn4c3c2Oc2cc([N+](=O)[O-])ccc2-4)C1 [Compound 16, (S)-6-(3-aminopyrrolidin-1-yl)-5-fluoro-9-nitro-3-oxo-3H-pyrido[3,2,1-kl]phenoxazine-2-carboxylic acid] | > 200 µM | – | 3.9 µM | 1.56 µM (≈ 0.665 µg/mL) | 7.8 µM | 6.32 | > 50 µM | > 50 µM | – | IC50 (E. coli topoisomerase I; [13]): 0.24 to 0.97 µM
Nc1ccc2c(c1)Oc1c(N3CC[C@H](N)C3)c(F)cc3c(=O)c(C(=O)O)cn-2c13 [Compound 17a, (S)-9-amino-6-(3-aminopyrrolidin-1-yl)-S-fluoro-3-oxo-3H-pyrido[3,2,1-kl]phenoxazine-2-carboxylic acid] | – | – | – | – | – | 6.14 | – | – | – | MIC (E. coli (MG1655) WT): >200 µM; MIC [6]: 6.25 µM (≈ 2.48 µg/mL); MIC (M. tuberculosis (H37Rv); [10]): >63.1 µM; Whole cell based antibacterial activity (MIC) E. coli Imp4213 (BAS3023) [1]: 1.56 µM; IC50 (E. coli topoisomerase I; [11]): 0.73 µM; IC50 (E. coli topoisomerase I; [12]): 0.48 to 0.97 µM; IC50 (Vero cells): > 63.1 µM
N[C@H]1CCN(c2c(F)cc3c(=O)c(C(=O)O)cn4c3c2Oc2ccccc2-4)C1 [Compound A-62176] | – | – | – | – | – | – | – | – | – | IC50 [8]: 870 to 4340 nM
O=C(O)c1cn(C2CC2)c2cc(N3CCNCC3)c(F)cc2c1=O [ciprofloxacin, reference compound] | – | – | – | – | – | – | – | – | – | concentration that abolishes 90% of viability in biofilm [7]: ≥ 24 µM
